Measured values published in patent publication US6375946B1, “Enhanced activation of natural killer cells using an NK cell activator and a hydrogen peroxide scavenger or inhibitor” (Maxim Pharmaceuticals, Inc., priority 1994, dated 2002).

How the values were obtained:
NK cells = experiment: IL-2-induced NK cell proliferation (3H-methyl-thymidine incorporation); assay type: cell-based, human; conditions: histamine 10^−4 M or catalase 20 U/ml, IL-2 50 U/ml, 48 hours
Method: During the last 8 hours of incubation, cells were pulsed with ^3H-methyl-thymidine (specific activity […]; New England Nuclear Corp.; 1 FCi/2×10^5 cells). Following incubation, the cells were collected on glass fiber filters with an automatic cell harvester and cell-incorporated ^3H-methyl-thymidine was estimated by liquid scintillography.

[1] = test system: NK cells (cytotoxicity against K562 target cells); experiment: cells; conditions: for reversal of inhibition of NK cells induced by H2O2: catalase 20 U/ml, data not shown; for time of addition at which the NK cell suppressive signal is inhibited: histamine 10^−4 M or catalase 20 U/ml added at time points after assay start; for effect on NK-cell-mediated killing of tumor cells in the absence of monocytes: no monocytes, NK cells unactivated or IL-2 activated
Method: Using blood obtained from a healthy human blood donor, we studied the effects of catalase on NK cell-mediated killing of tumor cells. K562 cells, from an NK sensitive erythroleukemic cell line, were used as target cells in all experiments. Washed cells (10×10^6 cells/ml) were incubated with ^51Cr (Amersham) at a concentration of 150 FCi/ml cell suspension for 2-4 hours. After centrifugation and resuspension in cell culture medium, 10^4 cells in 50 FL portions were added to the effector cells in microplate wells.
In the first set of experiments, human NK cells alone (1.5×10^5 cells/well) were added to the K562 target cells. […] The cells were then exposed to catalase (Boehringer-Mannheim) at concentrations of 0 to 100 U/ml. These same conditions were repeated using human NK cells admixed with 30% human peripheral blood monocytes, recovered by centrifugal elutriation, added to the target K562 cells.
After incubation at 37EC for 16 hours, supernatant fluids were collected by a tissue collecting system (Amersham) and assayed for radioactivity in a gamma counter. Maximum ^51Cr release was determined in target cell cultures treated with Triton-X. NK cell cytotoxicity was calculated as cell lysis % according to the following formula: [formula]
To study the relationship between the monocyte-derived inhibitory signal and the respiratory burst activity of monocytes, we added catalase and various other scavengers of reactive oxygen metabolites to NK cells, alone or admixed with monocytes. We then measured the cytotoxicity of the NK cells against NK cell sensitive K562 target cells as described above.
Cell culture medium (control), histamine (10^−4 M), or catalase (20 U/ml), was added to either enriched NK cells alone or a mixture of NK cells and monocytes (1.5×10^5 cells/well). These mixtures were then incubated with K562 target cells in sextuplicate in microplates in a total volume of 200 Fl and assayed for microcytotoxicity.
Culture medium (control) or H2O2 at concentrations between 0-10 FM was added to NK cell enriched lymphocytes for assay of cytotoxicity against ^51Cr K562 target cells as described above.
MPO (100 U/ml) and H2O2 at concentrations between 0-10 FM were added to NK cell enriched lymphocytes for assay of cytotoxicity against ^51Cr K562 target cells as described above.
A mixture of enriched NK cells and monocytes were treated with culture medium (control), histamine (10^−4 M), or catalase (20 U/ml) and assayed for microcytotoxicity against target K562 cells as described above in connection with Example 1. […] The data shown is cell lysis % ±s.e.m. of sextuplicates.

[2] = test system: YAC-1 mouse lymphoma cells; experiment: NK cell-mediated clearance of 51Cr-labeled YAC-1 lymphoma cells from lungs in vivo; parameters: species or system Swiss Albino mice; conditions: 100 U/kg intravenously, 2 hours, four experiments
Method: FIG. 2 graphically depicts the activation of NK cell-mediated clearance of YAC-1 lymphoma cells in vivo by catalase. Seventy-five thousand YAC-1 cells labeled with ^51Cr were injected intravenously into male or female 4-6-week-old Swiss Albino mice, together with vehicle (control; open bars) or catalase (100 U/kg; filled bars). Two hours after the inoculation of tumor cells, the mice were sacrificed by cervical dislocation. […] Results from 4 separate experiments are shown. Each bar represents the mean “s.e.m. of 3-5 animals.
Seventy-five thousand ^51Cr-labeled, NK cell-sensitive YAC-1 mouse lymphoma cells were injected intravenously into male or female 4 to 6 week old Swiss Albino mice, together with vehicle (control) or 100 U/kg catalase. Two hours after inoculation with the tumor cells, the mice were sacrificed by cervical dislocation. The lungs were removed and placed in test tubes in a gamma-counter, and the radioactivity in the lung tissue was measured. The radioactivity in lung tissue is an inverse measure of NK cell-mediated killing of tumor cells in vivo (see Hanna et al., JNCI 65:801 (1980)), and is expressed as a percent of the ^51Cr that is retained in lungs immediately after inoculation of radiolabeled tumor cells.

monocytes = experiment: Luminol-enhanced chemiluminescence (respiratory burst) of elutriated monocytes; assay type: cell-based, human
Method: Formylmethionyl-leucyl-phenylalanine was dissolved to 10^−2 M in dimethyl sulfoxide and subsequently diluted in Krebs-Ringer phosphate buffer supplemented with glucose (10 mM), Ca^2+ (1 mM), and Mg^2+ (1.5 mM).
In a second set of experiments, effects of histamine and H2R-interactive compounds on the respiratory burst activity, as measured by the luminol-enhanced CL response of enriched, elutriated monocytes, were studied. Monocytes were treated with culture medium (control), histamine (10^−5 M), sodium azide (10^−5 M), or histamine and sodium azide as described below. Emission of CL was recorded after addition of fMLP at time=0.
To assess whether histamine acted by inhibiting the generation of H2O2 or by reducing the availability of peroxidase, we next studied the effects of histamine in monocytes treated with sodium azide to inhibit endogenous myeloperoxidase (MPO) and with exogenous, azide-insensitive peroxidase (HRP) in excess.
To exclude non-specific effects of ranitidine, we used a ranitidine analog (AH20239AA; […]; Glaxo) in which the thioether of ranitidine is replaced by an ether, thereby strongly reducing its H2R antagonist properties. In these experiments, monocytes were treated with histamine (10^−5 M) together with ranitidine or AH20239AA at final concentrations indicated in FIG. 7. All cells were treated with fMLP at time=0. Peak CL recorded in untreated monocytes (control) was 2.5×10^7 cpm.

[3] = test system: NK cells (cytotoxicity against K562 target cells)
Method: In additional experiments, NK cell enriched lymphocytes were pretreated in petri dishes with culture medium (control), catalase or histamine, in the concentrations indicated below in Table II, in the presence or absence of monocytes. After 1 hour incubation, nonadherent lymphocytes were recovered, washed twice, and assayed for cytotoxicity as described above. We wished to determine whether the NK cell inhibitory signal was reversible by removal of monocytes and removal of monocyte-derived products. […] Data are cell lysis % ±s.e.m. of sextuplicates and are the results of 2 separate experiments.

RBC = test system: RBC
Method: (§1) Further, we used an assay system in which lysis of elutriated , ^51Cr -labelled RBC was measured in microplates.

[4] = histamine 10^−4 M, cell free
Method: The reaction mixture contained 0.8 ml elutriated monocytes (5×10^6 cells/ml).
as §1

Molecule: catalase
- reversal of monocyte-induced inhibition of IL-2-induced NK cell proliferation (NK cells): effectively reverse
- effect on monocyte-induced inhibition of baseline NK cell cytotoxicity [1]: completely abrogate
- concentration at which catalase reverses the monocyte suppressive signal ([1]; NK cells with monocytes): exceeding 10 U/ml
- concentration at which catalase reverses the monocyte suppressive signal ([1]; NK cells with monocytes, listed as Catalase): exceeding 5 U/ml
- reversal of inhibition of NK cells induced by H2O2 [1]: completely reversed
- time of addition at which the NK cell suppressive signal is inhibited [1]: within the first hour
- effect on NK-cell-mediated killing of tumor cells in the absence of monocytes [1]: does not affect
- effect on NK-cell-mediated killing of tumor cells in the absence of monocytes ([1]; listed as Catalase): had no effect
- NK cell-mediated killing of YAC-1 lymphoma cells in vivo (retained lung radioactivity) [2]: augmented

Molecule: superoxide dismutase [SOD]
- effect on monocyte-induced inhibition of baseline NK cell cytotoxicity [1]: did not alter

Molecule: CN(C)CCCSC(=N)N [Dimaprit]
- effect on the respiratory burst of monocytes (H2R-interactive compounds) (monocytes): mimicked the effect of histamine
- incubation time until effect on respiratory burst is maximal (monocytes; data not shown): 10 to 15 min

Molecule: CNC(=C[N+](=O)[O-])NCCOCc1ccc(CN(C)C)o1 [AH20239AA]
- potency relative to ranitidine in antagonizing inhibition of respiratory burst activity by histamine (fold less potent) (monocytes; histamine 10^−5 M): more than 100 fold
- potency relative to ranitidine in antagonizing effects of histamine on suppression of NK cell function by monocytes (fold less potent) [1]: more than 100 fold

Molecule: OC[C@@H](O)[C@@H](O)[C@H](O)[C@H](O)CO [mannitol]
- effect on monocyte-induced inhibition of baseline NK cell cytotoxicity [1]: ineffective

Molecule: OO [H2O2, hydrogen peroxide]
- inhibition of NK cell cytotoxicity after pretreatment and washing [3]: sufficient to effectively inhibit
- lysis of RBC (RBC; H2O2 5×10^−5 M, 10^5 RBC): approximately 50%
- effect on cytotoxicity of enriched NK cells [1]: effectively suppressed
- EC50 ([1]; Homo sapiens, K562, read-out: ED50 of suppression of NK cell cytotoxicity): ~2000 nM

Molecule: NCCS(=O)(=O)O [taurin]
- effect on monocyte-induced inhibition of baseline NK cell cytotoxicity [1]: ineffective

Molecule: CN(C)CCSC(=N)N [nor-dimaprit]
- effect on the respiratory burst of monocytes (H2R-interactive compounds) (monocytes): ineffective

Molecule: NCCc1c[nH]cn1 [histamine]
- time to block respiratory burst activity (monocytes; data not shown): within seconds
- effect on burst activity of unstimulated monocytes and induction of burst by fMLP (monocytes; histamine 10^−5 M): effectively inhibited
- effect on fMLP induced CL response with sodium azide and exogenous HRP in excess (monocytes; sodium azide 10^−5 M, HRP): inhibited
- reversal of monocyte-induced inhibition of IL-2-induced NK cell proliferation (NK cells): effectively reverse
- CL recorded with H2O2 and/or MPO or H2O2 and HRP [4]: unchanged
- effect on level of RBC killing induced by H2O2 (RBC; histamine 10^−4 M): did not alter
- effect on monocyte-induced inhibition of baseline NK cell cytotoxicity [1]: abrogated
- concentration at which histamine abrogates monocyte induced suppression of NK cells ([1]; NK cells with monocytes): exceeding 10^−7 M
- reversal of inhibition of NK cells induced by H2O2 [1]: not
- effect of histamine on monocyte induced suppression of NK cells in the presence of catalase ([1]; catalase present): ineffective
- time of addition at which the NK cell suppressive signal is inhibited [1]: within the first hour

Molecule: CC(=O)N(O)CCCCCNC(=O)CCC(=O)N(O)CCCCCNC(=O)CCC(=O)N(O)CCCCCN [deferox, deferoxamine]
- effect on monocyte-induced inhibition of baseline NK cell cytotoxicity [1]: ineffective

B1: myeloperoxidase (protein, UniProt P05164 165-745, looked up)
Myeloperoxidase: VTCPEQDKYRTITGMCNNRRSPTLGASNRAFVRWLPAEYEDGFSLPYGWTPGVKRNGFPVALARAVSNEIVRFPTDQLTPDQERSLMFMQWGQLLDHDLDFTPEPAARASFVTGVNCETSCVQQPPCFPLKIPPNDPRIKNQADCIPFFRSCPACPGSNITIRNQINALTSFVDASMVYGSEEPLARNLRNMSNQLGLLAVNQRFQDNGRALLPFDNLHDDPCLLTNRSARIPCFLAGDTRSSEMPELTSMHTLLLREHNRLATELKSLNPRWDGERLYQEARKIVGAMVQIITYRDYLPLVLGPTAMRKYLPTYRSYNDSVDPRIANVFTNAFRYGHTLIQPFMFRLDNRYQPMEPNPRVPLSRVFFASWRVVLEGGIDPILRGLMATPAKLNRQNQIAVDEIRERLFEQVMRIGLDLPALNMQRSRDHGLPGYNAWRRFCGLPQPETVGQLGTVLRNLKLARKLMEQYGTPNNIDIWMGGVSEPLKRKGRVGPLLACIIGTQFRKLRDGDRFWWENEGVFSMQQRQALAQISLPRIICDNTGITTVSKNNIFMSNSYPRDFVNCSTLPALNLASWREAS
- potentiation of the suppressive effect of H2O2 on NK cells ([1]; MPO 100 U/ml with H2O2 0-10 FM): did not potentiate
- scavenging of H2O2 ([1]; MPO 100 U/ml with H2O2 0-10 FM): slightly but significantly scavenged
